According to patent US11065245B2, “Priming of cancer cells with low dose naltrexone” (CANCER VACCINE INSTITUTE, priority 2014, dated 2021):

Assays:
[1] = tested on: A549 cells (a lung cancer cell line); experiment: Cell growth (MTT) with recovery (wash) phase after naltrexone; type: cell-based; conditions: 1 nM and 10 nM naltrexone 48 h then 24 h drug-free vs 72 h continuous
Experimental: (§1) (A) A549 cells (a lung cancer cell line) and (B) HCT116 cells (a colorectal carcinoma cell line), were cultured for 48 h in 1 nM and 10 nM (low dose) naltrexone (LDN) and in 1 μM and 10 μM (standard dose) naltrexone (NTX). Cells were either then washed and allowed to grow in drug-free medium for 24 h (wash) or continuously cultured in naltrexone for a total of 72 h (72); cell was viability assessed by absorbance readings. Effect of the wash step on HCT116 cells were also measured by (C) 3-(4,5-dimethylthiazol-2-yl)-2,5-diphenyltetrazolium bromide (MTT) colorimetric assay, (D) cell counting and (E) percentage of viable cells.
(§2) To study the effect of each agent on cell growth, cells growing exponentially were added to 96-well plates at a density of 3×10^4/well. Drugs were then added to the wells, ensuring an equal volume of 200 μl across the plate. Cell number was measured at 72 hr using a standard methylthiazoletetrazolium (MTT)-based assay without modifications. Briefly, MTT was added to each well to give a working concentration of 0.4 mg/ml, and plates returned to the incubator for a further 1 hr. After this time, the medium was aspirated off, 200 μl of DMSO was then added to each well and plates agitated gently for 5 min before measuring optical density at 540 nm in each well. […]

[2] = tested on: HCT116 cells (a colorectal carcinoma cell line); experiment: Cell growth (MTT, cell counting, viability) with recovery (wash) phase after naltrexone; type: cell-based, human; conditions: 1 nM and 10 nM naltrexone 48 h then 24 h drug-free vs 72 h continuous
Experimental: as §1, §2

[3] = tested on: T98G cells (glioma cell line); experiment: Cell growth (absorbance) with recovery (wash) phase after naltrexone; type: cell-based; conditions: naltrexone 48 h then 24 h drug-free vs 72 h continuous
Experimental: (§3) To study the effect of each agent on cell growth, cells growing exponentially were added to 96-well plates at a density of 3×10^4/well. Drugs were then added to the wells, ensuring an equal volume of 200 μl across the plate. Cell number was measured at 72 hr using a standard methylthiazoletetrazolium (MTT)-based assay without modifications. Briefly, MTT was added to each well to give a working concentration of 0.4 mg/ml, and plates returned to the incubator for a further 1 hr. After this time, the medium was aspirated off, 200 μl of DMSO was then added to each well and plates agitated gently for 5 min before measuring optical density at 540 nm in each well. The effect of recovery, where a wash step was included, was studied by removing naltrexone-containing medium and replacing this with fresh drug-free medium after 48 hr, before assessing cell number at the 72 hr time-point. Cell counting was performed by under light microscopy using staining with trypan blue to aid the discrimination of dead/dying cells. See description of FIGS. 1 and 2.

[4] = tested on: U87MG cells (glioma cell line); experiment: as above; type: cell-based; conditions: naltrexone 48 h then 24 h drug-free vs 72 h continuous
Experimental: as §3

[5] = tested on: Bcl-2-associated death promoter (BAD) protein; experiment: Western blot/densitometry of cell cycle proteins in HCT116 cells; type: cell-based, human; conditions: 10 nM naltrexone (LDN), 48 h
Experimental: (§4) Methodologically, HCT116 cells were treated with NTX and LDN for 48 h before determination of cellular proteins as labelled in the figure. The intensities of each of the bands indicate the level at which these proteins were expressed, which were enumerated by density analysis.
(§5) Cells were treated with 10 μM naltrexone (NTX) or 10 nM naltrexone (LDN) for 48 hr before they were harvested, and total cellular protein was solubilised in lysis buffer and resolved by Tris-glycine electrophoresis using a 4-12% bis-tris gradient-gel. Following transfer of proteins to 0.45-lm nitrocellulose membranes, blocking was performed in 5% (w/v) nonfat milk in TTBS [0.5% (v/v) Tween-20 in TBS (50 mM Tris, 150 mM NaCl, pH 8.0)]. Primary antibody probing for the protein specified in the figure were performed overnight at 4° C. before secondary probing using horseradish peroxidase-conjugated anti-species IgG1. Bands were visualised by the ECL-plus detection system. Densitometry analysis was performed using proprietary analysis software. RNA was extracted from these cells for gene expression analysis. RNA was purified by Trizol, followed by precipitation with isopropanol. […] Equal amounts (750 ng) of cRNA were hybridised to the Illumina human HT12-v3 arrays for 18 hr and subsequently processed according to manufacturer's instructions before scanning on an Illumina BeadArray Reader. […]

phosphorylated AKT = experiment: as above; type: cell-based, human; conditions: 10 nM naltrexone (LDN), 48 h
Experimental: as §4, §5

murine neuroblastoma = conditions: murine xenograft model; cited from earlier work
[6] = tested on: human colon cancer cell growth; conditions: murine xenograft model; cited from earlier work
[7] = tested on: human ovarian cancer cells; conditions: short-term naltrexone exposure; cited from earlier work

Compound: O=C1CC[C@@]2(O)[C@H]3Cc4ccc(O)c5c4[C@@]2(CCN3CC2CC2)[C@H]1O5 [LDN, morphinan-6-one, 17-(cyclopropylmethyl)-4,5-epoxy-3,14-di hydroxy-(5α)]
- cell numbers, recovery (wash) phase vs continuous administration [1]: greater reduction in cell numbers
- cell numbers, recovery (wash) phase vs continuous administration [2]: greater reduction in cell numbers
- cell numbers, recovery (wash) phase vs continuous administration [3]: greater reduction in cell numbers
- cell numbers, recovery (wash) phase vs continuous administration [4]: greater reduction in cell numbers
- BAD protein level relative to untreated cells [5]: upregulated
- phosphorylated AKT level relative to untreated cells (phosphorylated AKT): downregulated
- growth of murine neuroblastoma (murine neuroblastoma): inhibition
- growth of human colon cancer cells [6]: inhibition
- DNA synthesis [7]: decrease in DNA synthesis
